From US20230218577A1, “USE OF HEAT SHOCK PROTEIN INHIBITORS FOR THE TREATMENT OF NEURODEVELOPMENTAL DISORDERS” (The Children's Medical Center Corporation, priority 2020, published 2023)

Tests used:
[1] = system: pS6, IGF-IRβ in ctrl-sh neurons; assay: Western blot of pS6 and IGF-IRβ in ctrl-sh neurons; assay type: cell-based, rat; settings: dose curve
[2] = system: Hsp90 (panel of human cancer cell lines); settings: read-out: mean IC50 against Hsp90, Kelland et al. 1999; cited from earlier work
[3] = system: cilia (ACIII) in ctrl-sh hippocampal neurons; assay: cilia^HCA in ctrl-sh neurons; assay type: cell-based, rat; settings: four-day dose curve between DIV9-13
Excerpt: To investigate how mTORC1 dysregulation due to neuronal TSC loss affected ciliation, High Content image-based Assays (HCAs) were developed for unbiased quantification of cilia and mTORC1 activity (hereafter cilia^HCA and mTORC1^HCA) in primary neurons. As an in vitro model of TSC, rat hippocampal neurons transduced with lentiviral vectors (LV) expressing a short hairpin RNA (shRNA) were used directed against either the Tsc2 (Tsc2-sh) or the luciferase gene as a control (ctrl-sh) tagged with GFP. […] Both the cilia^HCA and mTORC1^HCA were optimized as imaged-based assays, where cilia and mTORC1 activity was monitored by immunofluorescent staining of ACIII to identify cilia and pS6 as a proxy of mTORC1 activation (FIGS. 8C-F). Neurons were transduced in culture at day in vitro (DIV) 1, and cilia and mTORC1 activity were assessed in a time course experiment at DIV2, 5, 7, 13, and 20 (FIG. 2A). […] Reduced ciliation was validated by manual imaging and quantification of LV-infected neurons co-labeled with ACIII/centrin (FIGS. 8G-H). No changes in size or ACIII intensity were detected in the remaining cilia of the Tsc2-sh neurons (FIGS. 8I-J). […]

## C=CCNC1=C2C[C@@H](C)C[C@H](OC)[C@H](O)[C@@H](C)/C=C(\C)[C@H](OC(N)=O)[C@@H](OC)C=C/C=C(\C)C(=O)NC(=CC1=O)C2=O [17-AGG, 3 S,5S,6R,7S,8E,10R,11S,12E,14E)-21-(allylamino)-6-hydroxy-5,11-dimethoxy-3,7,9,15-tetramethyl-16,20,22-trioxo-17-azabicyclo[16.3.1]docosa-8,12,14,18,21-pentaen-10-yl] carbamate]
[1]
  IGF-IRβ levels: reduced
  S6 phosphorylation: reduced
[2]
  IC50: […]
[3]
  ciliation: did not increase
